Data from the supplement of paper PMC10307832.

Legend:
Assay in all cases: relative viability (nuclei count vs DMSO), 5 days (fraction); higher = more cells survive
OSI-027 + AZD7762 = compound: COc1cccc2cc(-c3nc([C@H]4CC[C@H](C(=O)O)CC4)n4ncnc(N)c34)[nH]c12 [OSI-027] + NC(=O)Nc1cc(-c2cccc(F)c2)sc1C(=O)N[C@H]1CCCNC1 [AZD7762] (partner 0.2 µM)
Outline: (§1)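 One day after seeding in 1536-well plates, lung cancer cell lines were dosed by pin tool. Dosing was either single-drug or a fixed anchor-drug dose plus five library-drug doses (not always all listed) in √10 steps. After 5 days, nuclei were stained in one fix-and-stain step and counted on 4× images, and relative viability is the nuclei count of treated wells over that of vehicle wells, given as the median of duplicate plates.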

Alpelisib + Crizotinib = compound: Cc1nc(NC(=O)N2CCC[C@H]2C(N)=O)sc1-c1ccnc(C(C)(C)C(F)(F)F)c1 [Alpelisib] + C[C@@H](Oc1cc(-c2cnn(C3CCNCC3)c2)cnc1N)c1c(Cl)ccc(F)c1Cl [Crizotinib] (partner 1 µM)
Outline: as §1

OSI-027 + Palbociclib = compound: COc1cccc2cc(-c3nc([C@H]4CC[C@H](C(=O)O)CC4)n4ncnc(N)c34)[nH]c12 [OSI-027] + CC(=O)c1c(C)c2cnc(Nc3ccc(N4CCNCC4)cn3)nc2n(C2CCCC2)c1=O [Palbociclib] (partner 0.5 µM)
Outline: as §1

Vemurafenib + Vorinostat = compound: CCCS(=O)(=O)Nc1ccc(F)c(C(=O)c2c[nH]c3ncc(-c4ccc(Cl)cc4)cc23)c1F [Vemurafenib] + O=C(CCCCCCC(=O)Nc1ccccc1)NO [Vorinostat] (partner 1 µM)
Outline: as §1

Cell Line	relative viability (OSI-027 + AZD7762; first compound 0.01 µM)	relative viability (OSI-027 + AZD7762; first compound 0.03162 µM)	relative viability (OSI-027 + AZD7762; first compound 0.1 µM)	relative viability (OSI-027 + AZD7762; first compound 0.3162 µM)	relative viability (OSI-027 + AZD7762; first compound 1 µM)	relative viability (Alpelisib + Crizotinib; first compound 0.04 µM)	relative viability (Alpelisib + Crizotinib; first compound 0.1265 µM)	relative viability (Alpelisib + Crizotinib; first compound 0.4 µM)	relative viability (Alpelisib + Crizotinib; first compound 1.265 µM)	relative viability (Alpelisib + Crizotinib; first compound 4 µM)	relative viability (OSI-027 + Palbociclib; first compound 0.01 µM)	relative viability (OSI-027 + Palbociclib; first compound 0.03162 µM)	relative viability (OSI-027 + Palbociclib; first compound 0.1 µM)	relative viability (OSI-027 + Palbociclib; first compound 0.3162 µM)	relative viability (OSI-027 + Palbociclib; first compound 1 µM)	relative viability (Vemurafenib + Vorinostat; first compound 0.03162 µM)	relative viability (Vemurafenib + Vorinostat; first compound 0.1 µM)	relative viability (Vemurafenib + Vorinostat; first compound 0.3162 µM)	relative viability (Vemurafenib + Vorinostat; first compound 1 µM)
LC-2-ad	0.835	0.77	0.879	0.894	0.615	0.501	0.316	0.532	0.351	0.386	0.548	0.46	0.516	0.528	0.344	0.627	0.669	0.364	0.687
LCLC-97TM1	0.245	0.301	0.371	0.276	0.18	0.343	0.295	0.427	0.208	0.157	0.236	0.205	0.217	0.139	0.239	–	0.74	0.777	0.42
LCLC-103H	0.8	0.717	0.748	0.64	0.542	0.928	0.976	1.05	0.899	0.787	0.484	0.538	0.513	0.498	0.493	0.728	0.791	0.657	0.721
LK-2	0.538	–	0.277	0.16	0.112	0.284	0.188	0.215	0.233	0.252	0.578	–	0.483	0.403	0.163	0.261	0.271	0.3	0.247
LOU-NH91	0.762	0.702	0.667	0.597	0.482	0.743	0.702	0.758	0.627	0.59	0.556	0.563	0.503	0.567	0.529	0.87	0.742	0.692	0.933
LU99A	0.462	0.321	0.28	0.133	0.171	0.544	0.471	0.509	0.385	0.313	0.382	0.379	0.304	0.217	0.237	0.513	0.578	–	0.466
LXF-289	1.06	1.02	1.23	1.15	0.959	0.798	0.792	0.875	0.84	0.778	0.605	0.677	0.66	0.599	0.345	0.708	0.656	0.805	0.789
NCI-H23	0.231	0.259	0.26	0.253	0.215	0.565	0.497	0.425	0.428	0.432	0.439	0.552	0.414	0.25	0.237	0.53	0.588	0.561	0.402
NCI-H322M	0.621	0.61	0.481	0.427	0.419	0.797	0.955	0.892	0.708	0.693	0.489	0.436	0.478	0.438	0.483	0.84	–	1.11	0.829
NCI-H358	0.544	0.472	0.543	0.56	0.347	0.785	0.534	0.725	0.473	0.354	0.134	0.139	0.125	0.103	0.127	0.671	0.587	0.768	0.65
NCI-H441	1.35	1.07	1.24	0.934	0.499	0.743	0.567	0.746	0.432	0.435	0.165	0.205	0.178	0.146	0.166	0.875	0.663	0.652	0.642
NCI-H460	0.731	0.668	0.473	0.548	0.336	0.855	1.02	0.926	0.285	0.296	0.18	0.186	0.186	0.158	0.092	0.661	0.729	0.665	0.723
NCI-H647	0.402	0.558	0.362	0.314	0.348	1.03	1.08	1.11	0.933	0.913	0.389	0.371	0.351	0.354	0.155	0.411	0.643	0.6	0.442
NCI-H650	0.925	1.06	0.955	0.902	0.375	0.737	0.693	0.88	0.478	0.546	0.333	0.35	0.302	0.29	0.205	0.413	0.384	0.263	0.296
NCI-H727	0.557	0.568	0.41	0.576	0.546	0.839	0.771	0.891	0.717	0.508	0.655	0.65	0.752	0.622	0.625	1.01	0.978	1.41	1.27
NCI-H838	0.923	0.838	0.855	0.806	0.801	0.774	0.768	0.932	0.73	0.772	0.203	0.195	0.191	0.165	0.168	0.683	0.726	0.6	0.844
NCI-H1355	0.703	0.88	0.753	0.628	0.38	1.07	1.11	1.09	0.809	0.824	0.4	0.392	0.317	0.264	0.257	0.56	0.58	0.566	0.642
